Entries after “also recorded” stand apart in the source; their conditions may differ.
Legend:
[1] = system: Skin SCC SKXF 1834; assay: CFA, SKXF 1834; type: cell-based, human; conditions: PDX/CFA
Description: (§1) CFA was performed by Charles River Laboratories (Freiburg, Germany) in 96-well plate format according to a modified two-layer soft agar assay. The origin of the tumor xenografts has been described (Fiebig et al. 1989, incorporated herein by reference). The list of tumors used in this study is detailed in Table 1.

[2] = system: Lung (NSCLC, adeno) LXFA 1041; assay: CFA, LXFA 1041; type: cell-based, human; conditions: PDX/CFA
Description: as §1

[3] = system: Skin SCC SXFS 627; assay: CFA, SXFS 627; type: cell-based, human; conditions: PDX/CFA
Description: as §1

[4] = Skin irritation in naïve SKH-1 mice; type: in vivo, mouse; conditions: skin of naïve SKH-1 mice
[5] = system: Prostate PC-3; assay: XTT cell viability assay, PC-3; type: cell-based, human; conditions: Cell line/XTT
Description: For XTT assays, cells were plated in 96-well plates (5,000 cells per well) for 24 hours. Cells were then incubated with different concentrations of Formula C in triplicates for 72 hr in DMEM supplemented with 0.5% FCS and 5 mM Glucose. Cell viability was evaluated using 2,3-bis-(2-methoxy-4-nitro-5-sulfophenyl)-2H-tetrazolium-5-carboxanilide (XTT)-based colorimetric assay kit (Biological Industries Ltd., Kibbutz Beit-Haemek, Israel). The optical density was measured by an Infinite 200 ELISA reader at 450 nm and reference was measured at 630 nm (Tecan, Männedorf, Switzerland).

[6] = system: Lung (NSCLC, epidermoid) LXFE 772; assay: CFA, LXFE 772; type: cell-based, human; conditions: PDX/CFA
Description: as §1

[7] = target: T1, HK1 association with the mitochondria (Homo sapiens, UniProt P19367); assay: Western Blot of mitochondrial fraction, HK1 in A431 cells; type: cell-based; conditions: similar experimental setup, data not shown
T1 construct: human skin SCC A431 cells (which express both HK1 and HK2); endogenous in cells; host or cells: A431
T1 sequence (P19367 whole entry): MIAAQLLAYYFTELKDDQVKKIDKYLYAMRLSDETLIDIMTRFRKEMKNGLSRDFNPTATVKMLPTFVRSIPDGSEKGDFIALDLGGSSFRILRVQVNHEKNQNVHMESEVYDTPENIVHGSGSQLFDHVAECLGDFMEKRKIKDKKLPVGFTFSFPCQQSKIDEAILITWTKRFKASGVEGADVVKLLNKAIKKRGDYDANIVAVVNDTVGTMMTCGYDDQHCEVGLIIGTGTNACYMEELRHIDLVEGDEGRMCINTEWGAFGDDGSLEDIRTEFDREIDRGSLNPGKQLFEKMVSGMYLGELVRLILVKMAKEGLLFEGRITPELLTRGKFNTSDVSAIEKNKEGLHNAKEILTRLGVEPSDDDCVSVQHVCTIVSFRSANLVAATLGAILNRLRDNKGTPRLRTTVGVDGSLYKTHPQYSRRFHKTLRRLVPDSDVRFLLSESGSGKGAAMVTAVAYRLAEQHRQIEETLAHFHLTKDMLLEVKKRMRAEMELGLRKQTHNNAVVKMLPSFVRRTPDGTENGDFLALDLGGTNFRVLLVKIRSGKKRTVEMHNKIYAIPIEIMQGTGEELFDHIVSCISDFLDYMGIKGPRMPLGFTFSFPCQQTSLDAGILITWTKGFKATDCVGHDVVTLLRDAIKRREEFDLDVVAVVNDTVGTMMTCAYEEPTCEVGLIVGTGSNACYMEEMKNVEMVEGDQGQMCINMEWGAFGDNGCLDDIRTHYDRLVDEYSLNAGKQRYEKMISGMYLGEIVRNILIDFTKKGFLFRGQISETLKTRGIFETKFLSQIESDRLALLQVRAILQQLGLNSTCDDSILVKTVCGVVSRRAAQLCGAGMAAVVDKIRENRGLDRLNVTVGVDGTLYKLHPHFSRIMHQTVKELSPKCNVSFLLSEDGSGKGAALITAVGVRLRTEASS
Description: A431 cells were treated for 2 hours at 37° C. with various concentrations of Formula C in medium without FCS and 2 mM L-Gln. Mitochondria were isolated using Mitochondria Isolation Kit (Thermo Fisher Scientific, Rockford, IL) followed by a WB. Semi-quantification of the WB was done with Imagequant TL software v8.1 (GE healthcare Life Sciences, Little Chalfont, United Kingdom). TIM22 was used as a loading control for mitochondria. Cyclophilin A (PPIA) was used as a cytosolic marker.
Antibodies used: anti-rabbit HK1 (C-20245) and HK2 (C-28765) from CST (Danvers, MA), anti-rabbit PPIA (ab41684, Abcam), anti-rabbit TIM22 (14927-1-AP, Proteintech Group Inc., Rosemont, IL), anti-rabbit Cytochrome C (PA1118, Boster Biological Technology, Pleasanton, CA). Detection was performed using secondary antibodies: peroxidase-conjugated Affinipure goat anti-rabbit IgG (H+L) or goat anti-mouse IgG (H+L) (111-035-003 and 115-035-003, Jackson ImmunoResearch, West Grove, PA), and development was using the ECL kit WesternBright™ ECL (K-12045-D10, Advansta, Menlo Park, California, USA).

[8] = system: Leukemia (AML) LEXFAM OCI-AML2; assay: CFA, LEXFAM OCI-AML2; type: cell-based, human; conditions: Cell line/CFA
Description: as §1

[9] = system: Leukemia (ALL) LEXFAL CCRF-CEM; assay: CFA, LEXFAL CCRF-CEM; type: cell-based, human; conditions: Cell line/CFA
Description: as §1

[10] = target: T2, HK1 (Homo sapiens, UniProt P19367); assay: HK catalytic activity coupled enzymatic assay, HK1; type: biochemical; parameters: dose or concentration left out as unconfirmed; conditions: as a function of ATP or glucose; absence or presence of Formula C
T2 construct: host or cells: E. coli
T2 sequence (P19367 whole entry): as above
Description: A431 (human skin SCC), HT-297.T (human AK), and HaCaT transformed normal keratinocyte cell lines were from ATCC (Manassas, VA) and were maintained in DMEM supplemented with 10% FCS, 4 mM L-Gln, 1 mM sodium pyruvate, 100 U/mL penicillin, 1 μg/mL streptomycin. Human HK1 and HK2 plasmids were purchased from Addgene (Cambridge, MA) and were purified from E. Coli. VDAC1 was purified from sheep liver mitochondria as described (Arbel et al. 2012, incorporated herein by reference). Human skin tissue microarray (SK208 and SK 805) were purchased from US Biomax Inc. (Rockville, MD).
Hexokinase catalytic activity was determined by the coupled enzymatic assay in which hexokinase catalyzes the conversion of glucose to G6P, which is then oxidized by glucose-6-phosphate dehydrogenase (G6PDH) in the presence of NADP to form 6-Phospho-D-Gluconate and NADPH. NADPH production results in a colorimetric signal at 340 nm, which is proportional to the hexokinase catalytic activity. The readings were recorded in an ELISA plate reader Infinite 200 ELISA reader (Tecan, Männedorf, Switzerland).

[11] = system: CTCL cell line Hut-78; assay: PrestoBlue cell viability, Hut-78; type: cell-based, human; conditions: 72 hours
Description: Cutaneous T-cell lymphoma (CTCL) cell lines MJ and Hut78 were purchased from ATCC (CRL-8294, and TIB-161, respectively). Cells were grown in Iscove's Modified Dulbecco's Media supplemented with 2 mM L-glutamine, 10% fetal bovine serum, 100 U/mL of penicillin and 0.1 mg/mL of streptomycin.
Cells (1-2×10^4) were seeded in 96-well plates and treated with Formula C. Cell viability was determined 72 hours later using PrestoBlue reagent according to manufacturer's instruction (Life Technologies). The percentage of viability was expressed according to the fluorescence emitted by Formula C-treated cells compared to DMSO-treated control cells. The florescence emission values at 590 nm were measured with the plate-reader Spark 10M—multimode microplate reader (TECAN).

[12] = Phase 1a single topical application, pharmacokinetics; type: in vivo, human; conditions: healthy volunteers
Description: The Phase 1a clinical trial was a randomized, double-blinded, placebo-controlled, dose-escalation study in healthy older-adult volunteers to evaluate the safety, tolerability, and pharmacokinetics of a single topical dermal application of Formula C ointment. The study was conducted under FDA IND in a Phase 1 unit in the United States.
Fifteen healthy volunteers, aged 35-70, were sequentially assigned to 1 of 3 consecutive treatment cohorts (5%, 10% or 20% Formula C ointment, respectively). Five subjects were randomized in a double-blind fashion in each dose cohort: 4 subjects received active Formula C ointment and 1 received matched placebo (0% Formula C; vehicle control). The study ointment (250 mg) was applied once to a 25 centimeter squared area of skin on the forehead of each volunteer.

[13] = system: Leukemia (BCLL) LEXFCM MEG-01; assay: CFA, LEXFCM MEG-01; type: cell-based, human; conditions: Cell line/CFA
Description: as §1

[14] = system: Lung (NSCLC, adeno) LXFA 1012; assay: CFA, LXFA 1012; type: cell-based, human; conditions: PDX/CFA
Description: as §1

Structure (SMILES): CC/C=C\CC1C(=O)CCC1CC(=O)Oc1cccc2cccnc12 (centres unmarked) [Formula C]
- IC50 [1]: 742 nM
- IC50 [2]: 1500 nM
- IC50 [3]: 1560 nM
- skin irritation [4]: did not cause any irritation
- IC50 [5]: 1200 nM
- IC50 [6]: 3780 nM
- HK1 association with the mitochondria [7]: not affected
- IC50 [8]: 985 nM
- IC50 [9]: 206 nM
- HK1 catalytic activity [10]: does not affect; also recorded: did not affect the catalytic activity
- IC50 [11]: 1060 nM
- systemic exposure of VDA-1102 or its major metabolite [12]: No systemic exposure
- IC50 [13]: 2760 nM
- IC50 [14]: 1360 nM
